In patent US8013190B2, “Chemical composition with borane clusters for use as an HIV protease inhibitor” (Vysoka Skola Chemicko-Technologicka V Praze, priority 2004, dated 2011):
Read-outs that look alike come from different tables or passages of the source.

Legend:
wild type HIV-1 protease = biological target: T1, wild type HIV-1 protease (Human immunodeficiency virus type 1 group M subtype B, UniProt P12497); assay: Inhibition of pure recombinant HIV protease with chromogenic peptide substrate (spectrophotometric); format: biochemical
T1 construct: using pure recombinant HIV protease and chromogenic peptide substrate
Experimental: (§1) Initially, known and novel compounds were tested as to their ability to inhibit specific activitity of HIV protease in vitro using pure recombinant HIV protease and chromogenic peptide substrate derived from amino acid sequence of one of the sites of cleavage of viral polyprotein. Testing was performed using the method published by one of the co-inventors of this invention (Konvalinka, J., Litera, J., Weber, J., Vondrásek, J., Hradilek, M., Soucek, M., Pichová, I., Majer, P., Strop, P., Sedlácek, J., Heuser, A. -M., Kottler, H. and Kraeusslich, H. -G. (1997). Eur. J. Biochem. 250, 559-566). […] The reaction course is observed spectrophotometrically as decrease of the absorbance at 305 nm.
The mechanism of action of tested compounds (inhibition type) were determined from dependence of initial reaction rate on substrate concentration at different inhibitor concentrations (Lineweaver-Burke plot). Dependence of initial enzyme reaction rate on substrate concentration is measured at various inhibitor concentrations (here 0 and 15 μM). The measurements were performed at pH 4.7, 37° C. in 0.1 M acetate buffer containing 0.3M NaCl. y axis: reciprocal value of initial enzyme reaction rate, x axis: reciprocal value of substrate concentration (mol/dm^3).

[1] = system: HIV proviral clone NL 4-3; assay: HIV infectivity inhibition in tissue cultures transfected with proviral clone NL4-3, titration on TZM reporter cells; format: cell-based; settings: for effect on virus infectivity: 293 T cells transfected by NL 4-3, FIG. 5
Experimental: The antiviral activity of compounds GB-8, GB-12 and GB-16 in tissue cultures was analyzed using two variations of a published procedure (Benyoucef S, Hober D, Shen L, Ajana F, Gerard Y, Bocket-Mouton L, Mouton Y, Wattre P. (1996) Microbiol Immunol. 40(5), 381-8). The production of infectious HIV particles and influences of HIV protease inhibitors on the infectivity was directly determined by these assays.
For testing of compounds GB-8, GB-12 and GB-16, HeLa cells were transfected by DNA encoding pNL-43 strain of HIV virus that contained beta-galactosidase gene in the site of viral nef gene. All transfections were performed in duplicate. Medium was replaced the next day following the transfection, and protease inhibitors dissolved in DMSO were added into fresh medium. The control was incubated in the same DMSO concentration as tested cells. The supernatant of transfected cells was used in next round for reporter cells infection. Infectivity was quantified by enzyme beta-galactosidase activity in infected cells and the infected cells were visualised using chromogenic beta-galactosidase substrate (X-gal). Viral proteins of newly created virions were separated by SDS PAGE and immunochemically visualised using antibodies against HIV capsid protein (Western blot).
In paralel experiments, HIV was produced in 293 T cells transfected by proviral clone NL 4-3. All transfections were performed in duplicate. Medium was replaced the next day following the transfection, and protease inhibitors dissolved in DMSO were added into fresh medium. The control was incubated in the same DMSO concentration as tested cells. Viral infectivity was quantified by titration of the cell supernatant by TZM cell (reporter cells bearing in their genome LTR promotor from HIV bound with beta-galactosidase gene, activated by Tat protein produced by the virus). After two days following the infection the reporter cells were lysed and fixed by methanol/acetone mixture. Beta-galactosidase activity of infected cells was visualised by blue color after chromogenic substrate X-gal addition.

cathepsin D = cathepsin D (Homo sapiens, UniProt P07339); assay: Inhibition of recombinant protease, chromogenic substrate; format: biochemical
Experimental: as §1, with “nm. IC50 values of tested compounds were calculated from experimental data, as taught in (Majer, P., Urban, J., Gregorová, E., Konvalinka, J., Novek, P., Stehlíková, J., Andreánsky, M., Sedlácek, J. and Strop, P. (1993) Arch.Biochem.Biophys. 304, 1-8) and are shown in Table 1.” for “nm.”
(§2) Inhibition testing of GB-16 was performed also for wild type HIV-2 protease, mutant HIV-1 PR 3/1 and cathepsin D. Results are shown in Table 2.

mutant HIV-1 PR 3/1 = assay: as above; format: biochemical
Experimental: as §1, with “nm. IC50 values of tested compounds were calculated from experimental data, as taught in (Majer, P., Urban, J., Gregorová, E., Konvalinka, J., Novek, P., Stehlíková, J., Andreánsky, M., Sedlácek, J. and Strop, P. (1993) Arch.Biochem.Biophys. 304, 1-8) and are shown in Table 1.” for “nm.”
as §2

wild-type HIV-2 PR = biological target: T2, wild-type HIV-2 PR (Human immunodeficiency virus type 2 subtype A, UniProt P04584); assay: as above; format: biochemical
T2 construct: performed also for wild type HIV-2 protease, mutant HIV-1 PR 3/1 and cathepsin D
Experimental: as §1, with “nm. IC50 values of tested compounds were calculated from experimental data, as taught in (Majer, P., Urban, J., Gregorová, E., Konvalinka, J., Novek, P., Stehlíková, J., Andreánsky, M., Sedlácek, J. and Strop, P. (1993) Arch.Biochem.Biophys. 304, 1-8) and are shown in Table 1.” for “nm.”
as §2

[2] = biological target: T3, HIV PR 15 (M46I, A71V, V82T, I84V) (Human immunodeficiency virus type 1 group M subtype B, UniProt P12497, A559V/I572V/M534I/V570T); format: biochemical, HIV-1; settings: read-out: Inhibition constants Ki
T3 construct: using pure recombinant HIV protease and chromogenic peptide substrate
Experimental: as §1

[3] = biological target: T4, HIV PR 5/1 (L10I, I15V, E35D, N37S, R41K, I62V, L63P, A71V, G73S, L90M) (Human immunodeficiency virus type 1 group M subtype B, UniProt P12497, A559V/E523D/G561S/I503V/I550V/L498I/L551P/L578M/N525S/R529K); format: biochemical, HIV-1; settings: read-out: Inhibition constants Ki
T4 construct: using pure recombinant HIV protease and chromogenic peptide substrate
Experimental: as §1

[4] = biological target: T5, HIV PR K4 (L10I, L24I, L33F, M46L, I54V, L63P, A71V, V82A, I84V) (Human immunodeficiency virus type 1 group M subtype B, UniProt P12497, A559V/I542V/I572V/L498I/L512I/L521F/L551P/M534L/V570A); format: biochemical, HIV-1; settings: read-out: Inhibition constants Ki
T5 construct: using pure recombinant HIV protease and chromogenic peptide substrate
Experimental: as §1

virus strain NL4-3 = assay: HIV infectivity inhibition in PM1 cell cultures infected by NL4-3, titration on TZM-cells; format: cell-based; settings: 6,6 to 60 μM, 40 h
Experimental: For testing of compound GB-48, PM1 cell cultures infected by virus strain NL4-3 were split 2 days post infection 1 to 10 with fresh, uninfected cells. To remove unbound virus cells were washed with pre-warmed medium four hours post infection. Cells were subsequently incubated for 40 h with a GB-48 dissolved in DMSO at a final concentration from 0.74 to 60 μM. Control cells were incubated with the same amount of DMSO as the GB-48 treated cells. To harvest the free virus cells were centrifuged at 1500 rpm for 5 min and 10 μl of the supernatants were used for titration. Changes in viral infectivity were analysed by titration of the supernatants on TZM-cells as described above. Two days post infection TZM-cells were lysed and fixed with methanol/aceton. The beta-galactosidase activity of infected cells was visualised by blue stain upon X-Gal addition. All titrations were done in duplicate assays. The viral titer and standard deviation was calculated from three independent titrations. Example of the activity testing is given on FIG. 6. […] At these concentrations drops in viral titer of at least 3 orders of magnitude in virus infectivity were observed.

[5] = wild type HIV-1 protease, pH 4.7, Table 1 values in μM
[6] = wild type HIV-1 protease, pH 4.7, Table 1 values in nM
[7] = wild type, Table 3, read-out: Inhibition constants Ki

Sequence of cathepsin D (P07339 65-412, species assumed): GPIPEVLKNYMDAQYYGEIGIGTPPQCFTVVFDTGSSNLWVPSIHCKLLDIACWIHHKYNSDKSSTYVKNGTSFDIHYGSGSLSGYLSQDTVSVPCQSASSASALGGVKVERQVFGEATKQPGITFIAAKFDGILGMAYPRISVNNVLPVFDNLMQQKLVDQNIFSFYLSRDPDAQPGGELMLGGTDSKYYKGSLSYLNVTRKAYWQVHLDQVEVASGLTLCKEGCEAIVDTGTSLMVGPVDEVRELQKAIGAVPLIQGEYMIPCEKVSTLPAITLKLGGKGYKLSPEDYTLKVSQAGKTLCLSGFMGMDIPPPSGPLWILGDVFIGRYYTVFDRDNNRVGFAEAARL
T2 sequence (P04584 514-612 limits assumed): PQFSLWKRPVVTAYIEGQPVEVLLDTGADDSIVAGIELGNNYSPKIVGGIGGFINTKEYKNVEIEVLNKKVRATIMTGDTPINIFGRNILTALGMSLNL

“[8,8′-μ-O-(1,2-C2B9H10)(1′,2′-C2B9H10)-3,3′-Co]Na [GB-12]” was tested, and the IC50 (wild type HIV-1 protease; [5]) was 5.2 µM and the “effect on virus infectivity” value [1] was “block the virus infectivity”.

For “[8-(O-P(═O)(OH)2)-(1,2-C2B9H10)(1′,2′-C2B9H11)-3,3′-Co]Na.nH2O [GB-16]”, the “mechanism of action (inhibition type), Lineweaver-Burke plot” value (wild type HIV-1 protease; inhibitor 0 and 15 μM, pH 4.7, 37° C.) was “competitive inhibitor”, the IC50 (wild type HIV-1 protease; [5]) was 6.2 µM and the IC50 (wild type HIV-1 protease; wild-type HIV-1 PR, Table 2) was 6.2 µM. For the same substance, the Ki (wild type HIV-1 protease; wild-type HIV-1 PR, Table 2, read-out: Ki) was 16300 nM, the IC50 (cathepsin D) was 32900 nM and the Ki (cathepsin D) was 17200 nM. The IC50 (mutant HIV-1 PR 3/1) was 13400 nM, the Ki (mutant HIV-1 PR 3/1) was 3600 nM and the IC50 (wild-type HIV-2 PR) was 15400 nM. For the same substance, the Ki (wild-type HIV-2 PR) was 7400 nM, the “HIV infectivity, % of the initial value” ([1]; 10 μM solution, 293 T cells / TZM reporter cells) was ~27% and the “effect on virus infectivity” value [1] was “block the virus infectivity”.

For “[8-(OH-1,2-C2B9H10)(1′,2′-C2B9H11)-3,3′-Co]Na.nH2O [GB-8]”, the IC50 (wild type HIV-1 protease; [5]) was 13.5 µM and the “effect on virus infectivity” value [1] was “block the virus infectivity”.

Work on “[(1,2-C2B9H10)-3,3′-Co(1′,2′-C2B9H11)-8-(OCH2CH2)2NH(CH2CH2CH2CH3)-CH2CH2OCH2CH2-8″-O-(1″,2″-C2B9H10)-3″,3′″-Co(1′″,2′″-C2B9H11)]Na [GB-48]” yielded an IC50 (wild type HIV-1 protease; [6]) of 0.1 µM, a Ki (wild type HIV-1 protease; [7]) of 2.2 nM and a Ki [2] of 9 nM. The Ki [3] was 4.6 nM, the Ki [4] was 24 nM and the “drops in viral titer” value (virus strain NL4-3) was “at least 3 orders of magnitude”. The “effect on virus infectivity” value (virus strain NL4-3) was “strongly inhibited virus infectivity”.

With “[(1,2-C2B9H10)-3,3′-Co(1′,2′-C2B9H11)-8-(OCH2CH2)2NH-CH2CH2OCH2CH2-8″-O-(1″,2″-C2B9H10)-3″,3′″-Co(1′″,2′″-C2B9H11)]Na [GB-80]” the IC50 (wild type HIV-1 protease; [6]) was 0.14 µM, the Ki (wild type HIV-1 protease; [7]) was 4.9 nM and the Ki [2] was 22 nM. The Ki [3] was 40 nM and the Ki [4] was 13 nM.

Work on “[(8-(C6F5O-(CH2)5O)-1,2-C2B9H10)(1′,2′-C2B9H11)-3,3′-Co]Na [GB-54]” yielded an IC50 (wild type HIV-1 protease; [6]) of 0.2 µM.

“[(8-(C6F5O-(CH2-CH2O)2)-1,2-C2B9H10)(1′,2′-C2B9H11)-3,3′-Co]Na [GB-45]” gave an IC50 (wild type HIV-1 protease; [6]) of 0.16 µM.

Work on “[(8-(C6H4(CO)(CO)N-(CH2-CH2O)2)-1,2-C2B9H10)(1′,2′-C2B9H11)-3,3′-Co]Na [GB-64]” yielded an IC50 (wild type HIV-1 protease; [6]) of 0.84 µM.

“[(8-(C6H4(CO)(SO2)N-(CH2-CH2O)2)-1,2-C2B9H10)(1′,2′-C2B9H11)-3,3′-Co]Na [GB-63]” showed an IC50 (wild type HIV-1 protease; [6]) of 0.13 µM.

In the case of “[(8-(C6H5)-(CH2-CH2O)2)-1,2-C2B9H10)(1′,2′-C2B9H11)-3,3′-Co]Na [GB-40]”, the IC50 (wild type HIV-1 protease; [5]) is reported as 1.2 µM.

“[(8-(NH2(C6H5CH2)-(CH2-CH2O)2)-1,2-C2B9H10)(1′,2′-C2B9H11)-3,3′-Co] [GB-103]” gave an IC50 (wild type HIV-1 protease; [5]) of 1.4 µM.

For “[(8-(NH2(CH2CH2CH2CH3)-(CH2-CH2O)2)-1,2-C2B9H10)(1′,2′-C2B9H11)-3,3′-Co] [GB-102]”, the IC50 (wild type HIV-1 protease; [5]) was 2.2 µM.

With “[(8-(NH3-(CH2-CH2O)2)-1,2-C2B9H10)(1′,2′-C2B9H11)-3,3′-Co] [GB-69]” the IC50 (wild type HIV-1 protease; [5]) was 2.2 µM.

“[(8-(calix[4]arene-O-(CH2-CH2O)2)-1,2-C2B9H10)(1′,2′-C2B9H11)-3,3′-Co]Na [GB-72]” gave an IC50 (wild type HIV-1 protease; [6]) of 0.21 µM.

For “[(8-Cl-1,2-C2B9H10)(8′-Cl-1′,2′-C2B9H10)-3,3′-Co]Na [GB-96]”, the IC50 (wild type HIV-1 protease; [5]) was 1.08 µM.

“[(8-HO-(CH2-CH2O)2-1,2-C2B9H10)(1′,2′-C2B9H11)-3,3′-Co]Na [GB-1]” was tested, and the IC50 (wild type HIV-1 protease; [5]) was 6.1 µM.

Substance “[(8-I-1,2-C2B9H10)(8′-I-1′,2′-C2B9H10)-3,3′-Co]Na [GB-97]” has an IC50 (wild type HIV-1 protease; [6]) of 0.87 µM.

Work on “[((1,2-C2B9H10)-3,3′-Co(1′,2′-C2B9H11)-8-(OCH2CH2)2O)3-NH]Na2 [GB-79]” yielded an IC50 (wild type HIV-1 protease; [6]) of 0.13 µM.

With [(C2B9H10)2-3-Fe]Na.4H2O [GB-23] the IC50 (wild type HIV-1 protease; [6]) was 0.55 µM.
